{"source": "patent US20050197350A1", "about": "“Novel quinoline, tetrahydroquinazoline, and pyrimidine derivatives and methods of treatment related to the use thereof” (TAISHO PHARMACEUTICAL CO., LTD., priority 2003, published 2005)"}
{"system": "MCH receptors", "assay": "MCH receptor activity class (method not given)", "conditions": "activity class per percent of control at 10^-7 M or IC50"}
{"compound": "COc1ccc(CN[C@H]2CC[C@@H](Nc3cc(N(C)C)c4ccccc4n3)CC2)c2ccccc12", "note": "[compound 1089]", "class": "3 (Class 3 The value of percent of control at 10^−7 M was more than 60% or the value of IC50 was more than 200 nM.)"}
{"compound": "COc1ccc2[nH]cc(CN[C@H]3CC[C@@H](Nc4cc(N(C)C)c5ccccc5n4)CC3)c2c1", "note": "[compound 1090]", "class": "3 (Class 3 The value of percent of control at 10^−7 M was more than 60% or the value of IC50 was more than 200 nM.)"}
{"compound": "COc1ccc2ccccc2c1CN[C@H]1CC[C@@H](Nc2cc(N(C)C)c3ccccc3n2)CC1", "note": "[compound 1091]", "class": "3 (Class 3 The value of percent of control at 10^−7 M was more than 60% or the value of IC50 was more than 200 nM.)"}
{"compound": "COc1cc(Br)cc(CN[C@H]2CC[C@@H](Nc3cc(N(C)C)c4ccccc4n3)CC2)c1O", "note": "[compound 1092]", "class": "3 (Class 3 The value of percent of control at 10^−7 M was more than 60% or the value of IC50 was more than 200 nM.)"}
{"compound": "CN(C)c1cc(N[C@H]2CC[C@@H](NCc3c[nH]c4ccc(Br)cc34)CC2)nc2ccccc12", "note": "[compound 1093]", "class": "3 (Class 3 The value of percent of control at 10^−7 M was more than 60% or the value of IC50 was more than 200 nM.)"}
{"compound": "COc1ccc(CN[C@H]2CC[C@@H](Nc3cc(N(C)C)c4ccccc4n3)CC2)c(OC)c1", "note": "[compound 1094]", "class": "3 (Class 3 The value of percent of control at 10^−7 M was more than 60% or the value of IC50 was more than 200 nM.)"}
{"compound": "COc1ccc(CN[C@H]2CC[C@@H](Nc3cc(N(C)C)c4ccccc4n3)CC2)c(OC)c1OC", "note": "[compound 1095]", "class": "3 (Class 3 The value of percent of control at 10^−7 M was more than 60% or the value of IC50 was more than 200 nM.)"}
{"compound": "COc1cc(CN[C@H]2CC[C@@H](Nc3cc(N(C)C)c4ccccc4n3)CC2)cc(OC)c1O", "note": "[compound 1096]", "class": "3 (Class 3 The value of percent of control at 10^−7 M was more than 60% or the value of IC50 was more than 200 nM.)"}
{"compound": "CCOc1cc(CN[C@H]2CC[C@@H](Nc3cc(N(C)C)c4ccccc4n3)CC2)ccc1OC", "note": "[compound 1097]", "class": "3 (Class 3 The value of percent of control at 10^−7 M was more than 60% or the value of IC50 was more than 200 nM.)"}
{"compound": "CN(C)c1cc(N[C@H]2CC[C@@H](NCc3c[nH]nc3-c3ccc(C(F)(F)F)cc3)CC2)nc2ccccc12", "note": "[compound 1098]", "class": "3 (Class 3 The value of percent of control at 10^−7 M was more than 60% or the value of IC50 was more than 200 nM.)"}
{"compound": "COc1cc(CN[C@H]2CC[C@@H](Nc3cc(N(C)C)c4ccccc4n3)CC2)cc(OC)c1OC", "note": "[compound 1099]", "class": "3 (Class 3 The value of percent of control at 10^−7 M was more than 60% or the value of IC50 was more than 200 nM.)"}
{"compound": "COc1cc(CN[C@H]2CC[C@@H](Nc3cc(N(C)C)c4ccccc4n3)CC2)cc(OC)c1", "note": "[compound 1101]", "class": "3 (Class 3 The value of percent of control at 10^−7 M was more than 60% or the value of IC50 was more than 200 nM.)"}
{"compound": "COc1cc(CN[C@H]2CC[C@@H](Nc3cc(N(C)C)c4ccccc4n3)CC2)cc(I)c1O", "note": "[compound 1102]", "class": "3 (Class 3 The value of percent of control at 10^−7 M was more than 60% or the value of IC50 was more than 200 nM.)"}
{"compound": "Cc1cc(CN[C@H]2CC[C@@H](Nc3cc(N(C)C)c4ccccc4n3)CC2)cc(C)c1O", "note": "[compound 1103]", "class": "3 (Class 3 The value of percent of control at 10^−7 M was more than 60% or the value of IC50 was more than 200 nM.)"}
{"compound": "COc1cccc(CN[C@H]2CC[C@@H](Nc3cc(N(C)C)c4ccccc4n3)CC2)c1", "note": "[compound 1104]", "class": "3 (Class 3 The value of percent of control at 10^−7 M was more than 60% or the value of IC50 was more than 200 nM.)"}
{"compound": "CN(C)c1cc(N[C@H]2CC[C@@H](NCc3ccc(F)c(Br)c3)CC2)nc2ccccc12", "note": "[compound 1105]", "class": "3 (Class 3 The value of percent of control at 10^−7 M was more than 60% or the value of IC50 was more than 200 nM.)"}
{"compound": "Cc1ccc2occ(CN[C@H]3CC[C@@H](Nc4cc(N(C)C)c5ccccc5n4)CC3)c(=O)c2c1", "note": "[compound 1107]", "class": "3 (Class 3 The value of percent of control at 10^−7 M was more than 60% or the value of IC50 was more than 200 nM.)"}
{"compound": "Cc1cc(C)c2occ(CN[C@H]3CC[C@@H](Nc4cc(N(C)C)c5ccccc5n4)CC3)c(=O)c2c1", "note": "[compound 1108]", "class": "3 (Class 3 The value of percent of control at 10^−7 M was more than 60% or the value of IC50 was more than 200 nM.)"}
{"compound": "Cc1cc(CN[C@H]2CC[C@@H](Nc3cc(N(C)C)c4ccccc4n3)CC2)c(C)n1-c1ccccc1", "note": "[compound 1109]", "class": "3 (Class 3 The value of percent of control at 10^−7 M was more than 60% or the value of IC50 was more than 200 nM.)"}
{"compound": "CC(CN[C@H]1CC[C@@H](Nc2cc(N(C)C)c3ccccc3n2)CC1)c1ccccc1", "note": "(stereo partly drawn) [compound 1110, N4,N4-dimethyl-N2-{cis-4-[(2-phenylpropyl)amino]cyclohexy}quinoline-2,4-diamine]", "class": "3 (Class 3 The value of percent of control at 10^−7 M was more than 60% or the value of IC50 was more than 200 nM.)"}
{"compound": "CCCCC/C(=C\\c1ccccc1)CN[C@H]1CC[C@@H](Nc2cc(N(C)C)c3ccccc3n2)CC1", "note": "[compound 1111]", "class": "3 (Class 3 The value of percent of control at 10^−7 M was more than 60% or the value of IC50 was more than 200 nM.)"}
{"compound": "COc1ccccc1/C=C/CN[C@H]1CC[C@@H](Nc2cc(N(C)C)c3ccccc3n2)CC1", "note": "[compound 1112]", "class": "3 (Class 3 The value of percent of control at 10^−7 M was more than 60% or the value of IC50 was more than 200 nM.)"}
{"compound": "CN(C)c1cc(N[C@H]2CC[C@@H](NCc3coc4ccc(Cl)cc4c3=O)CC2)nc2ccccc12", "note": "[compound 1113]", "class": "3 (Class 3 The value of percent of control at 10^−7 M was more than 60% or the value of IC50 was more than 200 nM.)"}
{"compound": "CN(C)c1cc(N[C@H]2CC[C@@H](NCc3cncc(-c4ccc(F)cc4)c3)CC2)nc2ccccc12", "note": "[compound 1114]", "class": "3 (Class 3 The value of percent of control at 10^−7 M was more than 60% or the value of IC50 was more than 200 nM.)"}
{"compound": "CCOC(=O)c1[nH]c2cc(Cl)cc(Cl)c2c1CN[C@H]1CC[C@@H](Nc2cc(N(C)C)c3ccccc3n2)CC1", "note": "[compound 1115]", "class": "1 (Class 1: The value of percent of control at 10^−7 M was less than 40% or the value of IC50 was less than 50 nM.)"}
{"compound": "COC(=O)c1ccccc1Sc1nc2sccn2c1CN[C@H]1CC[C@@H](Nc2cc(N(C)C)c3ccccc3n2)CC1", "note": "[compound 1116]", "class": "3 (Class 3 The value of percent of control at 10^−7 M was more than 60% or the value of IC50 was more than 200 nM.)"}
{"compound": "CN(C)c1cc(N[C@H]2CC[C@@H](NCc3c[nH]nc3-c3ccc(F)cc3)CC2)nc2ccccc12", "note": "[compound 1117]", "class": "3 (Class 3 The value of percent of control at 10^−7 M was more than 60% or the value of IC50 was more than 200 nM.)"}
{"compound": "CSc1ccc(CN[C@H]2CC[C@@H](Nc3cc(N(C)C)c4ccccc4n3)CC2)cc1", "note": "[compound 1118]", "class": "3 (Class 3 The value of percent of control at 10^−7 M was more than 60% or the value of IC50 was more than 200 nM.)"}
{"compound": "CN(C)c1cc(N[C@H]2CC[C@@H](NCc3cccc4ccccc34)CC2)nc2ccccc12", "note": "[compound 1119]", "class": "3 (Class 3 The value of percent of control at 10^−7 M was more than 60% or the value of IC50 was more than 200 nM.)"}
{"compound": "COc1cc(CN[C@H]2CC[C@@H](Nc3cc(N(C)C)c4ccccc4n3)CC2)ccc1O", "note": "[compound 1120]", "class": "3 (Class 3 The value of percent of control at 10^−7 M was more than 60% or the value of IC50 was more than 200 nM.)"}
{"compound": "CN(C)c1cc(N[C@H]2CC[C@@H](NCc3ccc(F)c(Cl)c3)CC2)nc2ccccc12", "note": "[compound 1121]", "class": "3 (Class 3 The value of percent of control at 10^−7 M was more than 60% or the value of IC50 was more than 200 nM.)"}
{"compound": "COc1cccc(OC)c1CNC[C@H]1CC[C@@H](Nc2cc(N(C)C)c3ccccc3n2)CC1", "note": "[compound 1122]", "class": "2 (Class 2: The value of percent of control at 10^−7 M was from 40% to 60% or the value of IC′50 was from 50 nM to 200 nM.)"}
{"compound": "CCOc1ccccc1CNC[C@H]1CC[C@@H](Nc2cc(N(C)C)c3ccccc3n2)CC1", "note": "[compound 1123]", "class": "2 (Class 2: The value of percent of control at 10^−7 M was from 40% to 60% or the value of IC′50 was from 50 nM to 200 nM.)"}
{"compound": "CN(C)c1cc(N[C@H]2CC[C@@H](CNCc3c[nH]c4ccccc34)CC2)nc2ccccc12", "note": "[compound 1124]", "class": "3 (Class 3 The value of percent of control at 10^−7 M was more than 60% or the value of IC50 was more than 200 nM.)"}
{"compound": "COc1ccc(OC)c(CNC[C@H]2CC[C@@H](Nc3cc(N(C)C)c4ccccc4n3)CC2)c1", "note": "[compound 1125]", "class": "3 (Class 3 The value of percent of control at 10^−7 M was more than 60% or the value of IC50 was more than 200 nM.)"}
{"compound": "COc1ccc(CNC[C@H]2CC[C@@H](Nc3cc(N(C)C)c4ccccc4n3)CC2)c2ccccc12", "note": "[compound 1126]", "class": "2 (Class 2: The value of percent of control at 10^−7 M was from 40% to 60% or the value of IC′50 was from 50 nM to 200 nM.)"}
{"compound": "COc1ccc2[nH]cc(CNC[C@H]3CC[C@@H](Nc4cc(N(C)C)c5ccccc5n4)CC3)c2c1", "note": "[compound 1127]", "class": "3 (Class 3 The value of percent of control at 10^−7 M was more than 60% or the value of IC50 was more than 200 nM.)"}
{"compound": "COc1ccc2ccccc2c1CNC[C@H]1CC[C@@H](Nc2cc(N(C)C)c3ccccc3n2)CC1", "note": "[compound 1128]", "class": "3 (Class 3 The value of percent of control at 10^−7 M was more than 60% or the value of IC50 was more than 200 nM.)"}
{"compound": "COc1cc(Br)cc(CNC[C@H]2CC[C@@H](Nc3cc(N(C)C)c4ccccc4n3)CC2)c1O", "note": "[compound 1129]", "class": "2 (Class 2: The value of percent of control at 10^−7 M was from 40% to 60% or the value of IC′50 was from 50 nM to 200 nM.)"}
{"compound": "CN(C)c1cc(N[C@H]2CC[C@@H](CNCc3c[nH]c4ccc(Br)cc34)CC2)nc2ccccc12", "note": "[compound 1130]", "class": "2 (Class 2: The value of percent of control at 10^−7 M was from 40% to 60% or the value of IC′50 was from 50 nM to 200 nM.)"}
{"compound": "COc1ccc(CNC[C@H]2CC[C@@H](Nc3cc(N(C)C)c4ccccc4n3)CC2)c(OC)c1", "note": "[compound 1131]", "class": "3 (Class 3 The value of percent of control at 10^−7 M was more than 60% or the value of IC50 was more than 200 nM.)"}
{"compound": "COc1ccc(CNC[C@H]2CC[C@@H](Nc3cc(N(C)C)c4ccccc4n3)CC2)c(OC)c1OC", "note": "[compound 1132]", "class": "3 (Class 3 The value of percent of control at 10^−7 M was more than 60% or the value of IC50 was more than 200 nM.)"}
